Test results from patent US8518882B2, “Methods and compositions for ameliorating or inhibiting decline in memory or intelligence or improving same” (priority 1998, dated 2013).

Legend:
IP signaling = assay: PI turnover / inositol phosphate formation in NGF-differentiated PC12 cells; format: cell-based; details: for Formation of IP: NGF-differentiated PC12 cells, 1 hour, UTP 100 μM (p<0.05), uridine 50 μM (p<0.01)
Description: Analysis of PI turnover was performed as described by (Nitsch R M et al, J Neurochem 69: 704-12, 1997). Briefly, cells were labeled metabolically for 36 h with 1.25 microCurie (μCi)/dish of myo-[2-^3H]inositol (17.0 Curie/mmol; Amersham Biosciences) in serum-free MEM, washed twice with Hank's balanced salt solution (HBSS), and treated for 15 min with 10 mM lithium chloride in HBSS. Drugs were added in the presence of 10 mM lithium for 60 min at 37° C. Cells were lysed with ice-cold methanol, and lipids were removed by extraction with chloroform/methanol/water (2:2:1 by volume). Labeled water-soluble inositol phosphates were separated from free [^3H]inositol by ion-exchange chromatography, using AG 1-X8 columns (Bio-Rad), and 1M ammonium formate and 0.1M formic acid as eluent. Radioactivity was quantified by liquid scintillation spectrometry.

PC12 cells [1] = assay: Uptake of uridine into PC12 cells; format: cell-based
PC12 cells [2] = assay: Intracellular UTP and CTP levels in PC12 cells by HPLC; format: cell-based; details: 2 days with NGF; uridine 50 μM, UTP 100 μM, cytidine 50 μM
Description: (§1) Brain tissue or cells was dissolved in methanol/chloroform (1:2 vol/vol), centrifuged, and the aqueous phase was dried under vacuum, resuspended in 100-200 μL water and separated by HPLC on an ion-exchange column (Alltech Hypersil APS-2, 5 μM, 250×4.6 mm). CDP-choline was eluted with a linear gradient of NaH2PO4 buffers A (1.75 mM NaH2PO4, pH 2.9) and B (500 mM, pH 4.5), which allowed resolution of CDP-choline from closely co-eluting substances such as UMP over 40 min. The retention time for CDP-choline was 9.5 min. Individual nucleotide peaks were detected by UV absorption at […], and were identified by comparison with the positions of authentic standards, as well as by the addition of nucleotide standards to selected samples.
Levels of intracellular UTP and CTP were analyzed by HPLC as described for Example 5, except that 5 mM NaH2PO4, pH 2.65 was used as buffer A.

PC12 cells [3] = assay: NGF-induced neurite outgrowth, branching and length in PC12 cells; format: cell-based
Description: (§2) PC12 cells were maintained in Minimal Essential Medium (MEM; Invitrogen, Carlsbad, Calif.) supplemented with 10% fetal bovine serum (FBS) at 37° C. Experimental incubations were for 2 or 4 days in medium containing 50 ng/ml mouse 2.5 S (2.5 subunit) NGF and 1% FBS, with or without test compounds. NGF and FBS were obtained from Invitrogen.
PC12 cells were sparsely plated on collagen-coated 60 mm culture dishes in MEM containing 1% fetal bovine serum. […] All treatments were performed 24 h after plating. At the end of the treatment period, images were obtained with a phase-contrast Zeiss Axioplan 2 microscope, using OpenLab software. Six digital images were captured for each dish, for a total of 18 to 24 images per treatment group Approximately 300 cells were quantified for each treatment group for each experiment. Experiments were performed in triplicate. Quantification of neurites, including neurite branching and neurite length, was performed by one more researchers blinded to experimental groups Neurite length was measured using the public domain NIH software “Image J.” Processes longer than the diameter of the cell body were counted as neurites. Only process-bearing cells were analyzed.

NF-70 = NF-70 levels in PC12 cells (Western blotting); format: cell-based
Description: as §2
(§3) Equal amounts of protein (40 μg protein/lane) were loaded for sodium dodecyl sulfate-polyacrylamide gel electrophoresis (4-15% SDS PAGE; Bio-Rad, Hercules, Calif.). Prior to gel electrophoresis, bromphenol blue solution (0.07%) was added to each sample. Proteins were separated, transferred onto polyvinylidene difluoride (PVDF) membranes (Immobilon-P, Millipore), and blocked with 5% bovine serum albumin (Tris-buffered saline/0.15% Tween 20) for 1 h. After 3 10 min rinses in Tris-buffered saline (TBST), blots were incubated in TBST with various antibodies against the proteins of interest, including NF-70, NF-M (1: 2000, 1: 5000, respectively; Calbiochem, La Jolla, Calif.) at 4° C. overnight on an orbital shaker. […] Films were digitized using a Supervista S-12 scanner with a transparency adapter (UMAX Technologies, Freemont, Calif.). Analysis was performed using the public domain NIH Image program (NIH V.1.61).

PC12 cells [4] = assay: Intracellular CDP-choline levels in PC12 cells; format: cell-based; details: after 50 minutes
Description: as §1, §2

[5] = system: P2Y2, P2Y4 and P2Y6 receptors; assay: P2Y receptor expression in NGF-differentiated PC12 cells; format: cell-based; details: compared with cells exposed to NGF alone
Description: Western blots utilized rabbit anti-P2Y2, anti-P2Y4 (both from Calbiochem); or rabbit anti-P2Y6 (Novus Biologicals, Littleton, Colo.).
PC 12 cells were treated as described above, except they were grown on 12 mm glass cover slips (A Daigger & Co., Vernon Hills, Ill.) coated with collagen. Proteins were visualized using immunofluorescence. Briefly, the cells were fixed with 4% paraformaldehyde, permeabilized with 0.25% Triton X-100, blocked in 10% normal goat serum, and incubated overnight in the appropriate antibodies (mouse anti-NF-70, and either rabbit anti-P2Y2, rabbit anti-P2Y4 or rabbit anti-P2Y6). For P2Y2 and P2Y4 visualization, control cultures were incubated with primary antibody plus a control antigen in order to ensure that the immuno-staining would be specific. Control antigen was not available for the P2Y6 receptor. Cells were then incubated in fluorochrome-conjugated secondary antibodies for 1 hour (goat anti-rabbit ALEXA 488 and goat anti-mouse ALEXA 568; Molecular Probes, Eugene, Oreg.) and mounted on glass slides with mounting media with or without DAPI (Vector Laboratories, Burlingame, Calif.). Control antigens provided with the primary antibodies were used to ensure that immuno-staining was specific. Digital images were obtained on a Zeiss (Oberkochen, Germany) Axioplan microscope with OpenLab software, using a Zeiss Plan-Neofluor 40× oil-immersion objective.

[6] = Conversion of uridine to cytidine in plasma and brain of gerbils; format: in vivo; details: 250 mg/kg uridine orally, 60 min
NF-M = NF-M levels in PC12 cells (Western blotting); format: cell-based
Description: as §2, §3

Compound: Cc1nc(N=Nc2ccc(S(=O)(=O)O)cc2S(=O)(=O)O)c(COP(=O)(O)O)c(C=O)c1O [PPADS, pyridoxal-phosphate-6-azophenyl-2′,4′ disulfonic acid, reference compound]
- Block of stimulation of IP signaling by UTP (IP signaling; PPADS 100 μM): significantly (p<0.05) blocked
- Inhibition of uptake of uridine into PC12 cells (PC12 cells [1]): None of the P2Y receptor antagonists inhibited the uptake of uridine

Compound: Nc1c(S(=O)(=O)O)cc(Nc2ccc(Nc3nc(Cl)nc(Nc4cccc(S(=O)(=O)O)c4)n3)c(S(=O)(=O)O)c2)c2c1C(=O)c1ccccc1C2=O [RB-2, reactive blue 2]
- Inhibition of uptake of uridine into PC12 cells (PC12 cells [1]): None of the P2Y receptor antagonists inhibited the uptake of uridine

Compound: O=c1ccn([C@@H]2O[C@H](COP(=O)(O)OP(=O)(O)OP(=O)(O)O)[C@@H](O)[C@H]2O)c(=O)[nH]1 [UTP, uridine-5′-triphosphate]
- Formation of IP (IP signaling): significantly increased
- Intracellular CTP levels (PC12 cells [2]): did not significantly affect
- Intracellular UTP levels (PC12 cells [2]): did not significantly affect
- Neurite outgrowth (PC12 cells [3]; with NGF, 10 and 50 μM, 4 days, vs NGF only): significantly (p<0.01) enhanced

Compound: Nc1ccn([C@@H]2O[C@H](CO)[C@@H](O)[C@H]2O)c(=O)n1 [cytidine, reference compound]
- Intracellular CTP levels (PC12 cells [2]): did not significantly affect
- Intracellular UTP levels (PC12 cells [2]): did not significantly affect
- Neurite outgrowth (PC12 cells [3]; NGF-exposed cells, cytidine): had no effect on neurite outgrowth

Compound: Cc1ccc(C(=O)Nc2ccc(S(=O)(=O)O)c3cc(S(=O)(=O)O)cc(S(=O)(=O)O)c23)cc1NC(=O)c1cccc(NC(=O)Nc2cccc(C(=O)Nc3cc(C(=O)Nc4ccc(S(=O)(=O)O)c5cc(S(=O)(=O)O)cc(S(=O)(=O)O)c45)ccc3C)c2)c1 [suramin]
- Inhibition of uptake of uridine into PC12 cells (PC12 cells [1]): None of the P2Y receptor antagonists inhibited the uptake of uridine

Compound: O=c1ccn([C@@H]2O[C@H](CO)[C@@H](O)[C@H]2O)c(=O)[nH]1 [uridine]
- NF-70 expression (NF-70; NGF plus 50 μM, 4 days, vs NGF only, p<0.01): increased
- NF-70 level (NF-70; absence of NGF): had no effect
- Intracellular CDP-choline levels (PC12 cells [4]): statistically significant increase
- Formation of IP (IP signaling): significantly increased
- Expression of P2Y2, P2Y4 and P2Y6 receptors [5]: did not affect the expression
- Conversion to cytidine in brain versus plasma [6]: more efficiently converted to cytidine than in plasma
- Intracellular CTP levels (PC12 cells [2]): significantly (p<0.05) increased
- Intracellular UTP levels (PC12 cells [2]): significantly (p<0.05) increased
- Average neurite length (PC12 cells [3]; NGF-differentiated cells): did not significantly affect
- Production of neurites (PC12 cells [3]; absence of NGF, 50 μM, 2 or 4 days): did not result in the production of neurites
- Number of neurite branch points per cell (PC12 cells [3]; with NGF, 50 μM, 4 days): significantly (p<0.01) increased
- Number of neurites per cell (PC12 cells [3]; with NGF, 2-day treatment or lower concentrations (10, 25 μM)): had no effect
- NF-M expression (NF-M; NGF plus 50 μM, 4 days, vs NGF only, p<0.001): increased
- NF-M level (NF-M; absence of NGF): had no effect
